Data reported in patent US20250338846A1, “COMPOSITIONS HAVING PESTICIDAL UTILITY AND PROCESSES RELATED THERETO” (CORTEVA AGRISCIENCE, LLC, priority 2022, published 2025).

How the values were obtained:
Type in all cases: in vivo
[1] = test system: Sweet Potato Whitefly (Bemisia tabaci, BEMITA); assay: Bioassay 8: Sweet Potato Whitefly, spray on cotton seedlings at crawler emergence, nymphs counted 7-9 days after treatment; settings: AI alone 0.1 (10^-5) Wt %
Experimental: where X=No. of live aphids on solvent check plants and Y=No. of live aphids on treated plants. In Table B1 the “Expected % Control” was calculated using the method described in Colby S. R., Weeds, 1967, 15, 20-22. Bioassay 8: Sweet Potato Whitefly (Bemisia tabaci, BEMITA) (“SPW”).
(§1) Stock solutions were prepared with Formula One as well as for each of the active ingredients individually. Test solutions were prepared from the stock solutions. Test solutions were prepared containing Formula One, the individual active ingredients, and mixtures of Formula One with each of the active ingredients. The test solutions for Formula One and the individual active ingredients were prepared by adding 500 μL of stock solution to a 25 mL glass vial, then adding 500 μL of acetone, followed by the addition of 9 mL water with 0.025% Tween®) 20 to create a 0.001% (w/v) solution. The test solutions containing mixtures of Formula One and the individual active ingredients were prepared by adding 500 μL of the active ingredient stock solution to a 25 mL glass vial, followed by 500 μL of the Formula One stock solution, then by the addition of 9 mL water with 0.025% Tween®) 20 to create a test solution containing 0.001% (w/v) Formula One and 0.001% (w/v) of the active ingredient. Each test solution was serially diluted to create desired doses of test solutions (0.001% (w/v), 0.0001% (w/v), 0.00001% (w/v), 0.000001% (w/v), 0.0000001% (w/v), 0.000008% (w/v) and 0.00000001% (w/v)).
(§2) The test solutions were tested against SPW using the following procedure: Cotton seedlings grown in 3-inch pots, pruned so that only one true leaf remained, were used as test substrate. Adult B. tabaci were allowed to colonize the cotton plants and lay eggs for 24 hours after which all adults were removed from the plants using compressed air. Plants were monitored for egg development and, when crawler emergence was underway (>25% emergence based on visual examination using a microscope), the plants were sprayed using the test solutions and methods described above for green peach aphids (GPA). Treated plants were held in a holding room at approximately 25° C. and ambient relative humidity (RH) prior to grading. Evaluation was conducted by counting the number of developed 2-3 instar nymphs per plant under a microscope 7-9 days after treatment. Percent control was measured using Abbott's correction formula (W. S. Abbott, J. Econ. Entomol. 18 (1925), pp. 265-267) as follows:
where X=No. of live nymphs on solvent check plants and Y=No. of live nymphs on treated plants. In Table B2 the “Expected % Control” was calculated using the method described in Colby S. R., Weeds, 1967, 15, 20-22. Bioassay 9: Diamondback Moth (Plutella xylostella, PLUTMA) (DBM).

[2] = test system: Western Tarnished Plant Bug (Lygus hesperus, LYGUHE); assay: Bioassay 4: Western Tarnished Plant Bug, soaked green bean segments, living nymphs 3 days after application
Experimental: where X=No. of live nymphs on solvent check leaf discs and Y=No. of live nymphs on treated leaf discs. In Table B3 the “Expected % Control” was calculated using the method described in Colby S. R., Weeds, 1967, 15, 20-22. Bioassay 4: Western Tarnished Plant Bug (Lygus hesperus, LYGUHE) (“WTPB”).
(§3) Stock solutions were prepared with Formula One as well as for each of the active ingredients individually. Test solutions were prepared from the stock solutions. Test solutions were prepared containing Formula One, the individual active ingredients, and mixtures of Formula One with each of the active ingredients. The test solution for Formula One was prepared by adding 500 μL of the stock solution to a 25 mL glass vial, then adding 500 μL of acetone, followed by the addition of 9 mL water with 0.025% Tween®) 20 to create a 0.04% (w/v) solution. The test solutions of the individual active ingredients were prepared by adding 500 μL of stock solution to a 25 mL glass vial, then adding 500 μL of acetone, followed by the addition of 9 mL water with 0.025% Tween®) 20 to create a 0.005% (w/v) solution. The test solutions containing mixtures of Formula One and the individual active ingredients were prepared by adding 500 μL of the active ingredient stock solution to a 25 mL glass vial, followed by 500 μL of the Formula One stock solution, then by the addition of 9 mL water with 0.025% Tween®) 20 to create a test solution containing 0.04% (w/v) Formula One and 0.005% (w/v) of the active ingredient. Each test solution was serially diluted to create desired doses of test solutions (0.005% (w/v), 0.00125% (w/v), 0.0003125% (w/v), 0.000078% (w/v), and 0.0000195% (w/v)). In test solutions containing mixtures of Formula One and the active ingredients, the active ingredients were diluted as described above, but the Concentration of Formula One was held constant (0.04% (w/v)).
The test solutions were tested against WTPB using the following procedure: Fresh green beans were cut into segments approximately 1.5 inches long. Four bean segments were added to each 25 mL vial containing the test solutions and soaked for approximately 15 minutes. After soaking, a single bean fragment was removed and placed into a single well of a 32-well rearing tray (Frontier Agricultural Sciences™), on top of a round filter paper disc. A reference treatment (solvent check) was treated with the diluent only. Each treatment was replicated four times and the test treatments were held at approximately 26° C. and ambient relative humidity (RH) prior to grading. Bean segments were allowed to air dry for ˜30 minutes. Three WTPB nymphs were added to and contained in each well with a clear perforated adhesive lid. The total number of living WTPB nymphs was recorded 3 days after application. Scoring was based off the total number of living nymphs out of all four replicates. Percent control was measured using Abbott's correction formula (W. S. Abbott, J. Econ. Entomol. 18 (1925), pp. 265-267) as follows:
(§4) X=No. of live nymphs on solvent check and Y=No. of live nymphs on treated bean segments. In Table B4 the “Expected % Control” was calculated using the method described in Colby S. R., Weeds, 1967, 15, 20-22. Bioassay 5: Neotropical Brown Stink Bug (Euschistus heros, EUSCHE) (“BSB”).

[3] = test system: Neotropical Brown Stink Bug (Euschistus heros, EUSCHE); assay: whole plant or invertebrate
Experimental: as §4
as §3, with “The” for “The test solutions of the”, “(0.01%” for “(0.005%”, “0.0025%” for “0.00125%”, “0.000625%” for “0.0003125%”, “0.000156%” for “0.000078%”, “0.000039%” for “0.0000195%”
The test solutions that were tested against BSB were similar to those described above for WTPB. Fresh green beans were cut into segments approximately 1.5 inches long. Four bean segments were added to each test solution and soaked for approximately 15 minutes. After soaking, a single bean fragment was removed and placed into a single well of a 32-well rearing tray (Frontier Agricultural Sciences™), on top of a round filter paper disc. A reference treatment (solvent check) was treated with the diluent only. Each treatment was replicated four times and the test treatments were held at approximately 26° C. and ambient relative humidity (RH) prior to grading. Bean segments were allowed to air dry for ˜30 minutes. Three BSB nymphs were added to and contained in each well with a clear perforated adhesive lid. The total number of living BSB nymphs was recorded 3 days after application. Scoring was based off the total number of living nymphs out of all four replicates. Percent control was measured using Abbott's correction formula (W. S. Abbott, J. Econ. Entomol. 18 (1925), pp. 265-267) as follows:
where X=No. of live nymphs on solvent check and Y=No. of live nymphs on treated bean segments. In Table B5 the “Expected % Control” was calculated using the method described in Colby S. R., Weeds, 1967, 15, 20-22. Bioassay 6: Beet Armyworm (Spodoptera exigua, LAPHEG) (BAW), and Diamondback Moth (Plutella xylostella, PLUTMA) (DBM).

[4] = test system: Sweet Potato Whitefly (Bemisia tabaci, BEMITA); assay: Bioassay 2: Sweet Potato Whitefly, spray on cotton seedlings at crawler emergence, nymphs counted 7-9 days after treatment; settings: AI alone 1 (10-5) % w/v
Experimental: as §1, with “(w/v),” for “(w/v), 0.000008% (w/v)”
as §2
where X=No. of live nymphs on solvent check plants and Y=No. of live nymphs on treated plants. In Table B2 the “Expected % Control” was calculated using the method described in Colby S. R., Weeds, 1967, 15, 20-22. Bioassay 3: Western Flower Thrips (Frankliniella occidentalis, FRANOC) (“WFT”).

CC1(C)C(C=C(Cl)Cl)C1C(=O)OC(C#N)c1ccc(F)c(Oc2ccccc2)c1 (stereo not drawn) [Cyfluthrin]
Average % Control A1 [1]: 46.90%

CC(c1ccc(C(F)(F)F)nc1)S(C)(=O)=NC#N (stereo not drawn) [Sulfoxaflor]
Average % Control AI ([2]; AI alone 0.0003125 % w/v): 0% | pest or weed control at 0.0025 % strength ([3]; Euschistus heros, 72 h, AI alone 0.0025 % w/v, read-out: Average % Control AI): 58%

Spinetoram
Average % Control AI ([2]; AI alone 0.005 % w/v): 0% | Average % Control AI [4]: 41% | Average % Control AI ([3]; AI alone 0.000625 % w/v): 8%
